According to patent publication US20220409617A1, “Drug Formulations and Methods of Treatment for Metabolic Disorders” (The Regents of the University of California, priority 2019, published 2022):

Test system: KRAS G12D knock-in MEFs
Assay: KRAS-mediated mitochondrial fission in KRAS G12D knock-in MEFs
Assay type: cell-based, mouse
Conditions: 893 5 μM
Description: 3T3-L1 cells were maintained in DMEM with 10% FBS and 1% penicillin-streptomycin until induced to differentiate. 3T3-L1 pre-adipocytes were differentiated as described in (M. P. Valley, et al., Anal. Biochem. 505: 43-50, 2016, the disclosure of which is incorporated herein by reference) with slight modifications. Briefly, pre-adipocytes were grown to confluence. After 2 d, cells were induced with maintenance media containing 500 μM IBMX (15879, Sigma-Aldrich, St. Louis, Mo.), 1 μM dexamethasone (D4902, Sigma-Aldrich), 5 μg/mL bovine insulin (10516, Sigma-Aldrich), and 5 μM troglitazone (50-115-0786, ApexBio). Media was changed every 2-3 d for 7 d. On day 7 post-induction, media was changed to maintenance media+5 μg/mL bovine insulin. On day 9 post-induction, media was changed to maintenance media. Mature adipocytes were used 12-14 d post-induction for all experiments. […]
MEFs were washed twice with PBS and fixed with 4% paraformaldehyde for 10 min at RT. […] NADH/NADPH autofluorescence was detected with 740 nm excitation and 450±50 nm detectors using a Mai Tai two-photon laser. Fluorescence microscopy was performed on a Zeiss LSM 780 confocal using a 63× oil objective with a […] numerical aperture (NA) or using a Nikon TE2000-S inverted epifluorescence microscope with a 100× oil objective (1.3 NA) and a Photometrics CoolSNAP ES2 monochrome CCD camera. […]

CCCCCCCCc1ccc([C@H]2CCN[C@@H]2CO)cc1.Cl [compound 893]
Correction of KRAS-mediated mitochondrial fission in KRAS G12D MEFs: rapidly corrected KRAS-mediated mitochondrial fission
